Experimental findings from patent US10596110B2, “Residence structures and related methods” (Massachusetts Institute of Technology, priority 2014, dated 2020) are described below.

This data set in a line: Stability of drugs in acidic conditions, in solution or in PCL structures (HPLC). The data set is classed as physicochemical. Particulars: IAW, pH=1, 37° C. The method, then:
Stability of drugs in the gastric environment was evaluated using HPLC and LC-MS/MS analysis. Hydrophilic drugs were dissolved in simulated gastric fluid (SGF, 0.2% (w/v) NaCl, 0.83% (v/v) HCL, pH=1) in centrifuge tubes. Hydrophobic drugs were dissolved in IAW (isopropanol 70%, acetonitrile 20%, water 10%) with pH adjusted to 1 using HCL. As a control, drugs were dissolved in the same solvents with pH adjusted to 6.0 (using IM NaOH). After vortexing for 1 min and sonication for 10 min, tubes were placed in a shaking incubator (150 rpm, 37° C.). Samples were collected at defined time points for up to two weeks and analyzed by HPLC and LC-MS/MS to quantify the stability of drugs.
Stability of drugs loaded into PCL based delivery matrices were also studied. Loading of drugs is described below in Examples 16 and 17. Drug loaded structures were kept at acidic conditions (pH=1, 37° C.) and at defined intervals, drug was extracted from the PCL matrix and analyzed by HPLC and/or LC-MS/MS. In order to extract drugs, structures were sonicated in SGF (hydrophilic drugs) or isopropanol (hydrophobic drugs) for 10 min. Fresh drug in SGF or Isopropanol was prepared immediately before analysis as controls.
Ivermectin (IVM) loaded structures, shown in FIG. 16B, were placed in SGF+RH solution (pH=1, 37° C.) for 72 h. Drug was extracted by sonicating the structure in isopropanol for 10 min.

On to Ivermectin, for which the “Stability in acidic conditions (in solution)” value is “unstable”.
